According to the supplement of paper PMC13380429:
Counter-ions that a name gives are not always drawn.

Tests used:
Conditions in all cases: 72 h
[1] = test system: Caco-2; assay: cell viability relative to DMSO; higher = less toxic
[2] = test system: Calu-3; assay: as above
[3] = test system: HepG2; assay: as above
[4] = test system: U2OS; assay: as above
[5] = test system: Vero E6; assay: as above
[6] = test system: Caco-2; assay: relative viability EC50 (midpoint between 100% and the lowest measured viability); higher = less toxic
[7] = test system: Calu-3; assay: as above
[8] = test system: HepG2; assay: as above
[9] = test system: U2OS; assay: as above
[10] = test system: Vero E6; assay: as above
[11] = test system: Caco-2; assay: drug sensitivity score (DSS) for viability; higher = more toxic; extreme values may be limits of the assay
[12] = test system: Calu-3; assay: as above
[13] = test system: HepG2; assay: as above
[14] = test system: U2OS; assay: as above
[15] = test system: Vero E6; assay: as above

SMILES: CN1CCN2c3c(cccc31)[C@@H]1CN(CCCC(=O)c3ccc(F)cc3)CC[C@@H]12 [lumateperone]
- cell viability ([1]; 1 nM): 96.5%
- cell viability ([1]; 10 nM): 100%
- cell viability ([1]; 100 nM): 97.1%
- cell viability ([1]; 1000 nM): 97.6%
- cell viability ([1]; 10000 nM): 78.8%
- cell viability ([2]; 1 nM): 101%
- cell viability ([2]; 10 nM): 112%
- cell viability ([2]; 100 nM): 98.3%
- cell viability ([2]; 1000 nM): 110%
- cell viability ([2]; 10000 nM): 92.3%
- cell viability ([3]; 1 nM): 100%
- cell viability ([3]; 10 nM): 91.6%
- cell viability ([3]; 100 nM): 103%
- cell viability ([3]; 1000 nM): 101%
- cell viability ([3]; 10000 nM): 80.7%
- cell viability ([4]; 1 nM): 96.6%
- cell viability ([4]; 10 nM): 102%
- cell viability ([4]; 100 nM): 94.1%
- cell viability ([4]; 1000 nM): 99.6%
- cell viability ([4]; 10000 nM): 89.1%
- cell viability ([5]; 1 nM): 98.4%
- cell viability ([5]; 10 nM): 92.7%
- cell viability ([5]; 100 nM): 101%
- cell viability ([5]; 1000 nM): 99.6%
- cell viability ([5]; 10000 nM): 97.3%
- relative viability EC50 [6]: > 10 µM
- relative viability EC50 [7]: > 10 µM
- relative viability EC50 [8]: > 10 µM
- relative viability EC50 [9]: > 10 µM
- relative viability EC50 [10]: > 10 µM
- drug sensitivity score [11]: 1
- drug sensitivity score [12]: 0
- drug sensitivity score [13]: 0.5
- drug sensitivity score [14]: 0
- drug sensitivity score [15]: 0

SMILES: CC(C)(COP(=O)(O)OP(=O)(O)OC[C@H]1O[C@@H](n2cnc3c(N)ncnc32)[C@H](O)[C@@H]1OP(=O)(O)O)[C@@H](O)C(=O)NCCC(=O)NCCS [coenzyme-A]
- cell viability ([1]; 1 nM): 100%
- cell viability ([1]; 10 nM): 100%
- cell viability ([1]; 100 nM): 102%
- cell viability ([1]; 1000 nM): 97.8%
- cell viability ([1]; 10000 nM): 110%
- cell viability ([2]; 1 nM): 100%
- cell viability ([2]; 10 nM): 101%
- cell viability ([2]; 100 nM): 96.7%
- cell viability ([2]; 1000 nM): 99.8%
- cell viability ([2]; 10000 nM): 102%
- cell viability ([3]; 1 nM): 109%
- cell viability ([3]; 10 nM): 96.6%
- cell viability ([3]; 100 nM): 111%
- cell viability ([3]; 1000 nM): 96%
- cell viability ([3]; 10000 nM): 98.4%
- cell viability ([4]; 1 nM): 96.9%
- cell viability ([4]; 10 nM): 100%
- cell viability ([4]; 100 nM): 103%
- cell viability ([4]; 1000 nM): 103%
- cell viability ([4]; 10000 nM): 104%
- cell viability ([5]; 1 nM): 108%
- cell viability ([5]; 10 nM): 102%
- cell viability ([5]; 100 nM): 92.4%
- cell viability ([5]; 1000 nM): 104%
- cell viability ([5]; 10000 nM): 98.9%
- relative viability EC50 [6]: > 10 µM
- relative viability EC50 [7]: > 10 µM
- relative viability EC50 [8]: > 10 µM
- relative viability EC50 [9]: > 10 µM
- relative viability EC50 [10]: > 10 µM
- drug sensitivity score [11]: 0
- drug sensitivity score [12]: 0
- drug sensitivity score [13]: 0
- drug sensitivity score [14]: 0
- drug sensitivity score [15]: 0

SMILES: CN1[C@@H]2CC[C@H]1C[C@@H](OC(=O)C(CO)c1ccccc1)C2 (stereo not given in full) [ATROPINE SULFATE]
- cell viability ([1]; 1 nM): 93.2%
- cell viability ([1]; 10 nM): 95%
- cell viability ([1]; 100 nM): 67.1%
- cell viability ([1]; 1000 nM): 99.6%
- cell viability ([1]; 10000 nM): 98.5%
- cell viability ([2]; 1 nM): 96.2%
- cell viability ([2]; 10 nM): 102%
- cell viability ([2]; 100 nM): 88.4%
- cell viability ([2]; 1000 nM): 104%
- cell viability ([2]; 10000 nM): 96.1%
- cell viability ([3]; 1 nM): 102%
- cell viability ([3]; 10 nM): 91.5%
- cell viability ([3]; 100 nM): 105%
- cell viability ([3]; 1000 nM): 84.3%
- cell viability ([3]; 10000 nM): 98.2%
- cell viability ([4]; 1 nM): 96.5%
- cell viability ([4]; 10 nM): 102%
- cell viability ([4]; 100 nM): 102%
- cell viability ([4]; 1000 nM): 102%
- cell viability ([4]; 10000 nM): 103%
- cell viability ([5]; 1 nM): 112%
- cell viability ([5]; 10 nM): 99.7%
- cell viability ([5]; 100 nM): 109%
- cell viability ([5]; 1000 nM): 99.4%
- cell viability ([5]; 10000 nM): 106%
- relative viability EC50 [6]: > 10 µM
- relative viability EC50 [7]: > 10 µM
- relative viability EC50 [8]: > 10 µM
- relative viability EC50 [9]: > 10 µM
- relative viability EC50 [10]: > 10 µM
- drug sensitivity score [11]: 0
- drug sensitivity score [12]: 0
- drug sensitivity score [13]: 0
- drug sensitivity score [14]: 0
- drug sensitivity score [15]: 0

SMILES: O=C(CN1CCN(Cc2ccc3c(c2)OCO3)CC1)N1c2ccccc2Sc2ccccc21 [fenoverine]
- cell viability ([1]; 1 nM): 106%
- cell viability ([1]; 10 nM): 110%
- cell viability ([1]; 100 nM): 105%
- cell viability ([1]; 1000 nM): 98.5%
- cell viability ([1]; 10000 nM): 82.7%
- cell viability ([2]; 1 nM): 92.8%
- cell viability ([2]; 10 nM): 109%
- cell viability ([2]; 100 nM): 99.2%
- cell viability ([2]; 1000 nM): 103%
- cell viability ([2]; 10000 nM): 110%
- cell viability ([3]; 1 nM): 94.6%
- cell viability ([3]; 10 nM): 104%
- cell viability ([3]; 100 nM): 101%
- cell viability ([3]; 1000 nM): 90%
- cell viability ([3]; 10000 nM): 90.3%
- cell viability ([4]; 1 nM): 95.1%
- cell viability ([4]; 10 nM): 97.2%
- cell viability ([4]; 100 nM): 98.1%
- cell viability ([4]; 1000 nM): 94.9%
- cell viability ([4]; 10000 nM): 96.7%
- cell viability ([5]; 1 nM): 87.4%
- cell viability ([5]; 10 nM): 98.2%
- cell viability ([5]; 100 nM): 98.4%
- cell viability ([5]; 1000 nM): 95%
- cell viability ([5]; 10000 nM): 84.7%
- relative viability EC50 [6]: > 10 µM
- relative viability EC50 [7]: > 10 µM
- relative viability EC50 [8]: > 10 µM
- relative viability EC50 [9]: > 10 µM
- relative viability EC50 [10]: > 10 µM
- drug sensitivity score [11]: 0.6
- drug sensitivity score [12]: 0
- drug sensitivity score [13]: 0
- drug sensitivity score [14]: 0
- drug sensitivity score [15]: 0

SMILES: CC1(C)C(=O)NC2=C1C(=O)C(=O)c1ccccc12 [BVT-948]
- cell viability ([1]; 1 nM): 92.1%
- cell viability ([1]; 10 nM): 104%
- cell viability ([1]; 100 nM): 99.6%
- cell viability ([1]; 1000 nM): 86.8%
- cell viability ([1]; 10000 nM): 0.9%
- cell viability ([2]; 1 nM): 98%
- cell viability ([2]; 10 nM): 101%
- cell viability ([2]; 100 nM): 104%
- cell viability ([2]; 1000 nM): 102%
- cell viability ([2]; 10000 nM): 20.3%
- cell viability ([3]; 1 nM): 97.5%
- cell viability ([3]; 10 nM): 95.4%
- cell viability ([3]; 100 nM): 88.7%
- cell viability ([3]; 1000 nM): 94.8%
- cell viability ([3]; 10000 nM): 21.3%
- cell viability ([4]; 1 nM): 101%
- cell viability ([4]; 10 nM): 98%
- cell viability ([4]; 100 nM): 95.8%
- cell viability ([4]; 1000 nM): 100%
- cell viability ([4]; 10000 nM): 0.1%
- cell viability ([5]; 1 nM): 98.3%
- cell viability ([5]; 10 nM): 102%
- cell viability ([5]; 100 nM): 104%
- cell viability ([5]; 1000 nM): 97.9%
- cell viability ([5]; 10000 nM): 19.6%
- relative viability EC50 [6]: 2.09 µM
- relative viability EC50 [7]: 3.34 µM
- relative viability EC50 [8]: 2.63 µM
- relative viability EC50 [9]: 3.17 µM
- relative viability EC50 [10]: 2.97 µM
- drug sensitivity score [11]: 7.7
- drug sensitivity score [12]: 4.2
- drug sensitivity score [13]: 5.1
- drug sensitivity score [14]: 5.6
- drug sensitivity score [15]: 4.7

SMILES: c1ccc(CNc2ncnc3[nH]cnc23)cc1 [6-benzylaminopurine]
- cell viability ([1]; 1 nM): 97%
- cell viability ([1]; 10 nM): 107%
- cell viability ([1]; 100 nM): 90.8%
- cell viability ([1]; 1000 nM): 109%
- cell viability ([1]; 10000 nM): 112%
- cell viability ([2]; 1 nM): 99.9%
- cell viability ([2]; 10 nM): 98.4%
- cell viability ([2]; 100 nM): 120%
- cell viability ([2]; 1000 nM): 97.3%
- cell viability ([2]; 10000 nM): 112%
- cell viability ([3]; 1 nM): 98.3%
- cell viability ([3]; 10 nM): 106%
- cell viability ([3]; 100 nM): 98.9%
- cell viability ([3]; 1000 nM): 109%
- cell viability ([3]; 10000 nM): 98.4%
- cell viability ([4]; 1 nM): 106%
- cell viability ([4]; 10 nM): 97.9%
- cell viability ([4]; 100 nM): 103%
- cell viability ([4]; 1000 nM): 99.5%
- cell viability ([4]; 10000 nM): 100%
- cell viability ([5]; 1 nM): 97.1%
- cell viability ([5]; 10 nM): 104%
- cell viability ([5]; 100 nM): 95.6%
- cell viability ([5]; 1000 nM): 95%
- cell viability ([5]; 10000 nM): 104%
- relative viability EC50 [6]: > 10 µM
- relative viability EC50 [7]: > 10 µM
- relative viability EC50 [8]: > 10 µM
- relative viability EC50 [9]: > 10 µM
- relative viability EC50 [10]: > 10 µM
- drug sensitivity score [11]: 0
- drug sensitivity score [12]: 0
- drug sensitivity score [13]: 0
- drug sensitivity score [14]: 0
- drug sensitivity score [15]: 0
